These results are taken from patent US20210170000A1, “Larval preparation of Heligmosomoides polygyrus bakeri as well as methods of making it and uses thereof” (Helmholtz Zentrum München Deutsches Forschungszentrum für …, priority 2018, published 2021).

One experiment has as its system human MDM. Briefly: HpbE- or Hpb GDH-treated human MDM with inhibitors or neutralizing antibodies. Format: cell-based. The source says:
In order to identify immuneregulatory proteins present in HpbE, the inventors fractionated the extract by size exclusion chromatography and identified active fractions (8-11) based on the capacity to induce the COX metabolite TXB2 as well as IL-10 (FIGS. 4C and 4D). The inventors then identified proteins present in active and non-active fractions by mass spectrometry, thus highlighting Hpb glutamate dehydrogenase (GDH) as a major immuneregulatory candidate, which was uniquely present in active fractions of HpbE (summarized in FIG. 4E). In addition, an inhibitor of GDH (Bithionol), which is also used as an anti-helminthic, reduced the HpbE-triggered induction of PGE2 and IL-10 (FIG. 4F).
As a new tool for studying the uptake, localization and function of Hpb GDH in vivo and in target cells in vitro, we generated monoclonal antibodies (mABs) specific for Hpb GDH (i.e. not cross-reactive with mammalian (human/mouse) GDH) (FIG. 5). Clone 4F8 was selected as the best candidate for further sub cloning and for testing in neutralization experiments. […]
As HIF-1α is positively regulated by the p38 MAPK, the inventors studied the involvement of p38 signaling in the induction of type 2-suppressive mediators by HpbE. In human MDM, p38 was phosphorylated upon treatment with HpbE, correlating with the induction of COX-2 (FIG. 11A) and a p38 inhibitor (VX-702) abrogated the induction of IL-10, IL-1R and PGE2-synthetic enzymes (PTGS2 and PTGES) (FIG. 11B to D). In line with HIF-1α dependent regulation in murine BMDM, a pharmacological inhibitor of HIF-1α (acriflavine) attenuated the HpbE-induced expression of IL-10, IL-1β and COX pathway enzymes in human MDM (FIG. 11B to D). However, p38 and HIF-1α were not responsible for the modulation of the 5-LOX pathway (FIG. 11D).
(§1) Monocyte-derived macrophages (MDM) or bone marrow derived macrophages (BMDM) were generated by culture in the presence of human or murine recombinant GM-CSF (10 ng/ml) (Miltenyi Biotech) and human recombinant TGF-β1 (2 ng/ml) (Peprotech) as previously described (Esser-von Bieren et al. (2013), PLoS Pathog., 9:e1003771; Dietz et al. (2016), J. Allergy Clin Immunol, 139(4):1343-1354.e6). On day 6, cells were harvested and used for further experiments.
(§2) Eicosanoids were quantified by liquid chromatography tandem mass spectrometry (LC-MS/MS) similar to a previously published method (Henkel et al. (2018); Allergy, doi:10.1111/a11.13700). Cytokines were quantified using commercially available multiplex assays or ELISA kits according to the manufacturer's instructions.

In a further experiment the test system is human granulocytes. As to the kind of experiment: Granulocyte chemotaxis (trans-well) towards nasal polyp secretions. The class given is cell-based. The following applies: for reduction of granulocyte chemotaxis in response to nasal polyp secretions: cells from AERD patients (n=6) and healthy controls (n=3), fluticasone propionate 1 μM, Montelukast 10 μM. As for the experimental part:
Granulocyte recruitment (induced by chemokines or nasal polyp secretions) was assessed with or without pre-treatment with Hpb proteins by using trans-well assays. Migrated granulocytes were enumerated microscopically and by flow cytometry.
PMN were resuspended to a concentration of 1×10^6 cells/ml in the presence of 100 ng/ml human GM-CSF (Miltenyi Biotech) and overnight stimulated with 10 μg/ml HpbE. When mentioned, PMN were pre-treated with 1 μM fluticasone propionate (Sigma-Aldrich), 10 μM montelukast (Cayman Chemical) or conditioned media from MDM stimulated overnight with 10 μg/ml Hpb extract+/−100 μM Indomethacin for 1 hour. PMN migration in response to nasal polyp secretions or a chemokine cocktail of 2 ng/ml RANTES, 20 ng/ml IL-8 (Miltenyi Biotech) and 2 ng/ml LTB4 (Cayman Chemical) was tested. Chemoattractants were placed in the lower wells of a chemotaxis plate (3 μm pore size; Corning). After mounting the transwell unit, […] PMN were added to the top of each well and migration was allowed for 3 hours at 37° C., 5% CO2. The number of cells migrating to the lower well was counted microscopically. In some experiments, manual counting was validated by flow cytometry.

For a further experiment, the system named is human granulocytes (PMN). As to the kind of experiment: Mediator production by human granulocytes (PMN). The class given is cell-based. As for the experimental part: (§3) Human polymorphonuclear leukocytes (PMN) or peripheral blood mononuclear cells (PBMC) were isolated from the peripheral blood from healthy controls or patients suffering from AERD using density gradient centrifugation. For some experiments, cells were further separated into monocytes (CD14^+), neutrophils (CD16^+) or eosinophils. CD14^+ monocytes were differentiated into macrophages by culture for 6-8 days in the presence of GM-CSF and TGFbl. In most experiments, cells were treated with Hpb proteins at a concentration of 10 μg protein/ml.
(§4) Mediator analysis in cell supernatants (+/−Hpb proteins) was performed by immunoassay for individual mediators (e.g. LTs, PGE2 or IL-10) or LC-MS/MS or Multiplex cytokine analysis for overall mediator profiles.
Hpb proteins (e.g., total somatic homogenate of Hpb L3 larvae) broadly modulate mediator profiles of human myeloid cells.
as §2

Experiment [1] relates to human monocyte derived macrophages (MDM). Briefly: Mediator (eicosanoid, cytokine) production by human monocyte derived macrophages. Format: cell-based. As for the experimental part:
as §3, §4
In order to study the effect of Hpb proteins on human macrophages, human monocyte derived macrophages (MDM) were stimulated with A23187 after 16 hrs. treatment with helminth proteins (e.g., total somatic homogenate of Hpb L3 larvae).
(§5) Human monocyte derived macrophages (MDM) were isolated, cultured and stimulated as described herein, e.g. in Example 3.
(§6) Eicosanoids or cytokines were quantified by LC-MS/MS or immunoassays as described herein, e.g. in Example 3.
as §1, §2

A further experiment relates to MDM from AERD patients. As to the kind of experiment: Eicosanoid production by MDM from AERD patients. Format: cell-based, human.
Source text: To validate the efficacy of HpbE in a relevant therapeutic indication, the inventors generated MDM from AERD patients and studied the effects of HpbE and FP on the mediator output.
as §5, §6

The mark [2] stands for this setting: purified recombinant His-tagged protein.

For `CC(C)(C)c1ccc(S(=O)(=O)/C=C/C#N)cc1` [BAY 11-7085], the “PGE2, IL-10 and IL-1β production as well as gene expression of PGE2-synthetic enzymes and IL-10” value in the experiment on human MDM (HpbE-treated human MDM, inhibition of NFκβ, 5 μM) is reported as “significantly reduced”.
Take `Oc1c(Cl)cc(Cl)cc1Sc1cc(Cl)cc(Cl)c1O` [Bithionol]: the “HpbE-triggered induction of PGE2 and IL-10” value in the experiment on human MDM (inhibitor of GDH, 20 μM) is listed as “reduced”.
Turning to `CS(=O)(=O)c1ccc(-c2noc(C(F)(F)F)c2-c2ccccc2)cc1` [CAY10404], in the experiment with human MDM (COX inhibitors), the “HpbE-triggered COX-2 expression” value was “reduced” and the “suppression of the 5-LOX pathway” value is “remained largely unaffected”.
With `CC(C)(O)c1ccccc1CC[C@@H](SCC1(CC(=O)O)CC1)c1cccc(/C=C/c2ccc3ccc(Cl)cc3n2)c1` [Montelukast], the “reduction of granulocyte chemotaxis in response to nasal polyp secretions” value in the experiment on human granulocytes was 10%.
As for `NC(=O)c1ccc(N(C(N)=O)c2c(F)cccc2F)nc1-c1ccc(F)cc1F` [VX-702], in the experiment on human MDM (p38 inhibitor), the “induction of IL-10, IL-1R and PGE2-synthetic enzymes (PTGS2 and PTGES)” value is reported as “abrogated”.
For the compound `CCC(=O)O[C@]1(C(=O)SCF)[C@H](C)C[C@H]2[C@@H]3C[C@H](F)C4=CC(=O)C=C[C@]4(C)[C@@]3(F)[C@@H](O)C[C@@]21C` [fluticasone propionate], the “pro-inflammatory arachidonic acid (AA) and linoleic acid (LA) metabolites” value in the experiment with human granulocytes (PMN) is recorded as “reduce”. In addition, the “eicosanoid output in MDM from healthy individuals” value in experiment [1] (weak induction of PGE2) was “only minor effects”. The “reduction of granulocyte chemotaxis in response to nasal polyp secretions” value in the experiment on human granulocytes is given as “failed to reduce chemotactic responses”. For the same compound, the “cell recruitment: migration of AERD patient granulocytes towards nasal polyp secretions ex vivo” value in the experiment on human granulocytes (pre-treatment of AERD granulocytes) was “not achieved”. Moreover, in the experiment on MDM from AERD patients, the “eicosanoid output of MDM from AERD patients” value is “no effects”.
Take `COc1ccc2c(c1)c(CC(=O)O)c(C)n2C(=O)c1ccc(Cl)cc1` [indomethacin]: in the experiment with human MDM (COX inhibitors), the “HpbE-triggered COX-2 expression” value is on record as “reduced” and the “suppression of the 5-LOX pathway” value was “remained largely unaffected”. For the same compound, the “induction of IL-10, IL-1β and PTGES” value with human MDM (COX inhibitors, CAY10404 10 μM) was “reduced”.
On to “Recombinant Hpb GDH: Recombinant His-tagged Hpb glutamate dehydrogenase (UniProtKB A0A183FP08, SEQ ID NO: 1) expressed in E. coli”, for which, in experiment [1] (setting [2]), the “PGE2 and IL-10 production by human macrophages” value is “induce”; the “generation of pro-inflammatory cysLTs by human macrophages” value was “reduce”.
Turning to acriflavine, the “HpbE-induced expression of IL-10, IL-1β and COX pathway enzymes” value with human MDM (pharmacological inhibitor of HIF-1α) is given as “attenuated”.
